Assay results published in US20260317299A1, “PIKFYVE PROTEIN KINASE DEGRADATION AGENT AND USE THEREOF” (Shanghai Institute of Organic Chemistry, Chinese Academy of …, priority 2023, published 2026).

Target: T1, PIKfyve (Homo sapiens, UniProt Q9Y2I7)
T1 construct: endogenous in cells; host or cells: VCaP
Assay: Degradation of PIKfyve proteins in VCaP tumor cells (24 h, Western blot)
Assay type: cell-based
Details: 37° C., compared with DMSO control, WB, read-out: DC50 (concentration that achieves 50% degradation activity)
Method in brief: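 VCaP cells (5×10^6 cells/ml) treated with a range of compound concentrations at 37° C for 24 h, then lysed in SDS buffer. PIKfyve level measured by Western blot with GAPDH as loading control and ECL detection. DC50 is the concentration giving 50% degradation relative to DMSO control.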

T1 sequence (Q9Y2I7 whole entry): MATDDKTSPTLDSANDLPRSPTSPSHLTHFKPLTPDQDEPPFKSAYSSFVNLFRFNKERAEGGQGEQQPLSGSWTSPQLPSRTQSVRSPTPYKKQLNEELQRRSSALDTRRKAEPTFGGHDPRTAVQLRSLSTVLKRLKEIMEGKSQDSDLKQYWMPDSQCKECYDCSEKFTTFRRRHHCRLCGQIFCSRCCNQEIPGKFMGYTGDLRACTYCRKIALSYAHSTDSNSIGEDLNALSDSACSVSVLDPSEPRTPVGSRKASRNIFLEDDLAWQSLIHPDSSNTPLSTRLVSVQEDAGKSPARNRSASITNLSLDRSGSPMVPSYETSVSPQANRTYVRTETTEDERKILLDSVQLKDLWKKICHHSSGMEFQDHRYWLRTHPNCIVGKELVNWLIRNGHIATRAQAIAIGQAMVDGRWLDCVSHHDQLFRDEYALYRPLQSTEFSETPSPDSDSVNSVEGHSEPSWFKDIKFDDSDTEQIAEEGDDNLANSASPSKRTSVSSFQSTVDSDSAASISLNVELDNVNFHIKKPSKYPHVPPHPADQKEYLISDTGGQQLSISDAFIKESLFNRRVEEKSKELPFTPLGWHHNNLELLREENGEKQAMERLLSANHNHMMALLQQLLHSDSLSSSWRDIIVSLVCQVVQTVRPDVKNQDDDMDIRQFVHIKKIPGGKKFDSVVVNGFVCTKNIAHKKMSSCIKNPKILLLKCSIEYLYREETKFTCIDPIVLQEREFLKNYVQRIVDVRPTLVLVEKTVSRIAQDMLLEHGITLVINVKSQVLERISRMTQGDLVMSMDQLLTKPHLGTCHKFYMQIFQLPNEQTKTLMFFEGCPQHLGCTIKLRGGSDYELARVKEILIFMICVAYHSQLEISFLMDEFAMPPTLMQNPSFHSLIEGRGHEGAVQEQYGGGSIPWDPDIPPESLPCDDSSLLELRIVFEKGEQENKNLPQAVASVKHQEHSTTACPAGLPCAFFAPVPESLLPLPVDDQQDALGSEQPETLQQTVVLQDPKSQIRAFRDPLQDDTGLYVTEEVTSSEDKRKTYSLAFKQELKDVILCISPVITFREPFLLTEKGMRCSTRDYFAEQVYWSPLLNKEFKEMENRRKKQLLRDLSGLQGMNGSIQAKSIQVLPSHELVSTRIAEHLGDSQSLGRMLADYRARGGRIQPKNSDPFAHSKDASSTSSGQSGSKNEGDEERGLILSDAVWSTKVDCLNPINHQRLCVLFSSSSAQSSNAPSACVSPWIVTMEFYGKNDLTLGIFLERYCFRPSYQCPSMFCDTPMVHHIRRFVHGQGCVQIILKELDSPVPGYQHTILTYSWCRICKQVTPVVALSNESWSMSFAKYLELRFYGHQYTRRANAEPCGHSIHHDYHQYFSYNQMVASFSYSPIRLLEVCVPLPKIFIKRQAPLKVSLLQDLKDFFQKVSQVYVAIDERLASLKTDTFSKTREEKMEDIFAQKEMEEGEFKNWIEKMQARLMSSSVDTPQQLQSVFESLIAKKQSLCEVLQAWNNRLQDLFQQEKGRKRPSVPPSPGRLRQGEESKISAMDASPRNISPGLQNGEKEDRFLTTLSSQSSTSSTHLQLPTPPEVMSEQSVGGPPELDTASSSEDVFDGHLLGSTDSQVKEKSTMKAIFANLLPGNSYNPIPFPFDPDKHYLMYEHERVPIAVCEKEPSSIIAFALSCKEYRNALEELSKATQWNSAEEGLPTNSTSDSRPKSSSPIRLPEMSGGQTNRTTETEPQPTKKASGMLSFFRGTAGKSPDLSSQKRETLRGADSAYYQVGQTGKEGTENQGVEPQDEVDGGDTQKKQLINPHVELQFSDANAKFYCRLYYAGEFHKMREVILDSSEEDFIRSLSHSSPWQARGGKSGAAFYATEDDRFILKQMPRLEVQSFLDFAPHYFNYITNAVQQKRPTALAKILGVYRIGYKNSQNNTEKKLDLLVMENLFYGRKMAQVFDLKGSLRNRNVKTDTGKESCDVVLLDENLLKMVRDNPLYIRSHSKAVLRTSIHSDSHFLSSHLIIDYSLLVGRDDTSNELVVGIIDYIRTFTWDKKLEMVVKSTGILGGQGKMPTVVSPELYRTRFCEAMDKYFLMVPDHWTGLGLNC

SMILES	DC50 [nM]
Cc1cccc(/C=N/Nc2cc(N3CCOCC3)nc(OCCc3ccc(NC(=O)CCCNC(=O)CC[C@H](NC(=O)[C@@H]4C[C@@H](O)CN4C(=O)[C@@H](NC(=O)C4(F)CC4)C(C)(C)C)c4ccc(-c5scnc5C)cc4)cc3)n2)c1 [Example 51, (2S,4R)-1-((S)-2-(1-fluorocyclopropane-1-carboxamido)-3,3-dimethylbutanoyl)-4-hydroxy-N—((S)-4-((4-((4-(2-((4-(2-((E)-3-methylbenzylidene)hydrazino)-6-morpholinopyrimidin-2-yl)oxy)ethyl)phenyl)amino)-4-oxobutyl)amino)-1-(4-(4-methylthiazol-5-yl)phenyl)4-oxobutyl)pyrrolidine-2-carboxamide]	1 to 100
Cc1cccc(/C=N/Nc2cc(N3CCOCC3)nc(OCCc3ccc(NC(=O)CCCCCC(=O)N[C@H](C(=O)N4C[C@H](O)C[C@H]4C(=O)N[C@@H](C)c4ccc(-c5scnc5C)cc4)C(C)(C)C)cc3)n2)c1 [Example 47]	1 to 100
Cc1cccc(/C=N/Nc2cc(N3CCOCC3)nc(OCCc3ccc(NC(=O)CCCCCCCCC(=O)Nc4cccc5c4C(=O)N(C4CCC(=O)NC4=O)C5)cc3)n2)c1 (centres unmarked) [Example 35, (E)-N^1-(2-(2,6-dioxopiperidin-3-yl)-3-oxoisoindolin-4-yl)-N^10-(4-(2-((4-(2-(3-methylbenzylidene)hydrazino)-6-morpholinopyrimidin-2-yl)oxy)ethyl)phenyl)decanediamide]	100 to 10000
Cc1cccc(/C=N/Nc2cc(N3CCOCC3)nc(OCCc3ccc(NC(=O)CCCCC(=O)N[C@H](C(=O)N4C[C@H](O)C[C@H]4C(=O)N[C@@H](C)c4ccc(-c5scnc5C)cc4)C(C)(C)C)cc3)n2)c1 [Example 46]	1 to 100
Cc1cccc(/C=N/Nc2cc(N3CCOCC3)nc(OCCc3ccc(NC(=O)CCC(=O)Nc4ccc5c(c4)C(=O)N(C4CCC(=O)NC4=O)C5)cc3)n2)c1 (centres unmarked) [Example 28, (E)-N^1-(2-(2,6-dioxopiperidin-3-yl)-3-oxoisoindolin-5-yl)-N^4-(4-(2-((4-(2-(3-methylbenzylidene)hydrazino)-6-morpholinopyrimidin-2-yl)oxy)ethyl)phenyl)succinimide]	1 to 100
Cc1cccc(-c2ccn(-c3cc(N4CCOCC4)nc(OC4CCN(c5ccc(NC(=O)NC6CCN(C(=O)C[C@H](NC(=O)[C@@H]7C[C@@H](O)CN7C(=O)[C@@H](NC(=O)C7(F)CC7)C(C)(C)C)c7ccc(-c8scnc8C)cc7)CC6)cc5)CC4)n3)n2)c1 [Example 82, (2S,4R)-1-((S)-2-(1-fluorocyclopropane-1-carboxamido)-3,3-dimethylbutanoyl)-4-hydroxy-N—((S)-1-(4-(4-methylthiazol-5-yl)phenyl)-3-(4-(3-(4-(4-((4-morpholino-6-(3-(m-tolyl)-1H-pyrazol-1-yl)pyrimidin-2-yl)oxy)piperidin-1-yl)phenyl)ureido)piperidin-1-yl)-3-oxopropyl)pyrrolidine-2-carboxamide]	1 to 100
Cc1cccc(-c2ccn(-c3cc(N4CCOCC4)nc(OC4CCN(c5ccc(NC(=O)C[C@H](NC(=O)[C@@H]6C[C@@H](O)CN6C(=O)[C@@H](NC(=O)C6(F)CC6)C(C)(C)C)c6ccc(-c7scnc7C)cc6)cc5)CC4)n3)n2)c1 [Example 67, (2S,4R)-1-((S)-2-(1-fluorocyclopropane-1-carboxamido)-3,3-dimethylbutanoyl)-4-hydroxy-N—((S)-1-(4-(4-methylthiazol-5-yl)phenyl)-3-((4-(4-((4-morpholino-6-(3-(m-tolyl)-1H-pyrazol-1-yl)pyrimidin-2-yl)oxy)piperidin-1-yl)phenyl)amino)-3-oxopropyl)pyrrolidine-2-carboxamide]	1 to 100
Cc1cccc(/C=N/Nc2cc(N3CCOCC3)nc(OCCc3ccc(NC(=O)CCCNC(=O)CSC(C)(C)[C@H](NC(=O)C4(F)CC4)C(=O)N4C[C@H](O)C[C@H]4C(=O)NCc4ccc(-c5scnc5C)cc4)cc3)n2)c1 [Example 59, (2S,4R)-1-((R)-2-(1-fluorocyclopropane-1-carboxamido)-3-methyl-3-((2-((4-((4-(2-((4-(2-((E)-3-methylbenzylidene)hydrazino)-6-morpholinopyrimidin-2-yl)oxy)ethyl)phenyl)amino)-4-oxobutyl)amino)-2-oxoethyl)thio)butanoyl)-4-hydroxy-N-(4-(4-methylthiazol-5-yl)benzyl)pyrrolidine-2-carboxamide]	100 to 10000
Cc1cccc(-c2ccn(-c3cc(N4CCOCC4)nc(OC4CCN(c5ccc(N6CCN(C(=O)CC[C@H](NC(=O)[C@@H]7C[C@@H](O)CN7C(=O)[C@@H](NC(=O)C7(F)CC7)C(C)(C)C)c7ccc(-c8scnc8C)cc7)CC6)cc5)CC4)n3)n2)c1 [Example 85, (2S,4R)-1-((S)-2-(1-fluorocyclopropane-1-carboxamido)-3,3-dimethylbutanoyl)-4-hydroxy-N—((S)-1-(4-(4-methylthiazol-5-yl)phenyl)-4-(4-(4-(4-((4-morpholino-6-(3-(m-tolyl)-1H-pyrazol-1-yl)pyrimidin-2-yl)oxy)piperidin-1-yl)phenyl)piperazin-1-yl)-4-oxobutyl) pyrrolidine-2-carboxamide]	1 to 100
Cc1cccc(/C=N/Nc2cc(N3CCOCC3)nc(OCCc3ccc(NC(=O)CCCCCCCNc4ccc5c(c4)C(=O)N(C4CCC(=O)NC4=O)C5=O)cc3)n2)c1 (centres unmarked) [Example 18, (E)-8-((2-(2,6-dioxopiperidin-3-yl)-1,3-dioxoisoindolin-5-yl)amino)-N-(4-(2-((4-(2-(3-methylbenzylidene)hydrazino)-6-morpholinopyrimidin-2-yl)oxy)ethyl)phenyl) octanamide]	100 to 10000
Cc1cccc(-c2ccn(-c3cc(N4CCOCC4)nc(OC4CCN(c5ccc(NC(=O)NC6CN(C(=O)CC[C@H](NC(=O)[C@@H]7C[C@@H](O)CN7C(=O)[C@@H](NC(=O)C7(F)CC7)C(C)(C)C)c7ccc(-c8scnc8C)cc7)C6)cc5)CC4)n3)n2)c1 [Example 81, (2S,4R)-1-((S)-2-(1-fluorocyclopropane-1-carboxamido)-3,3-dimethylbutanoyl)-4-hydroxy-N—((S)-1-(4-(4-methylthiazol-5-yl)phenyl)-4-(3-(3-(4-(4-((4-morpholino-6-(3-(m-tolyl)-1H-pyrazol-1-yl)pyrimidin-2-yl)oxy)piperidin-1-yl)phenyl)ureido)azetidin-1-yl)-4-oxobutyl)pyrrolidine-2-carboxamide]	1 to 100
Cc1cccc(-c2ccn(-c3cc(N4CCOCC4)nc(OCCc4ccc(NC(=O)CNC(=O)CC[C@H](NC(=O)[C@@H]5C[C@@H](O)CN5C(=O)[C@@H](NC(=O)C5(F)CC5)C(C)(C)C)c5ccc(-c6scnc6C)cc5)cc4)n3)n2)c1 [Example 65, (2S,4R)-1-((S)-2-(1-fluorocyclopropane-1-carboxamido)-3,3-dimethylbutanoyl)-4-hydroxy-N—((S)-1-(4-(4-methylthiazol-5-yl)phenyl)-4-((2-((4-(2-((4-morpholino-6-(3-(m-tolyl)-1H-pyrazol-1-yl)pyrimidin-2-yl)oxy)ethyl)phenyl)amino)-2-oxoethyl)amino)-4-oxobutyl)pyrrolidine-2-carboxamide]	1 to 100
Cc1cccc(-c2ccn(-c3cc(N4CCOCC4)nc(OCCc4ccc(C#CC5CCN(c6cc7c(cc6F)C(=O)N(C6CCC(=O)NC6=O)C7=O)CC5)cc4)n3)n2)c1 (centres unmarked) [Example 90, 2-(2,6-Dioxopiperidin-3-yl)-5-fluoro-6-(4-((4-(2-((4-morpholino-6-(3-(m-tolyl)-1H-pyrazol-1-yl)pyrimidin-2-yl)oxy)ethyl)phenyl)ethynyl)piperidin-1-yl)isoindoline-1,3-dione]	100 to 10000
Cc1cccc(/C=N/Nc2cc(N3CCOCC3)nc(OCCc3ccc(NC(=O)CCCCCNc4ccc5c(c4)C(=O)N(C4CCC(=O)NC4=O)C5=O)cc3)n2)c1 (centres unmarked) [Example 17, (E)-6-((2-(2,6-dioxopiperidin-3-yl)-1,3-dioxoisoindolin-5-yl)amino)-N-(4-(2-((4-(2-(3-methylbenzylidene)hydrazino)-6-morpholinopyrimidin-2-yl)oxy)ethyl)phenyl) hexanamide]	100 to 10000
